Data taken from patent US20080008999A1, “Process for detecting the existence of mesenchymal chrondrosarcoma” (priority 2004, published 2008).
Structures can show the parent of a compound that is named as a salt.

What was measured:
K562 tumor cells = assay: KOR assay, optical density versus time of cell cultures (FIG. 13); type: cell-based
Excerpt: Referring again to FIG. 6, and in the preferred embodiment depicted therein, a 96 well microtiter dish 310 is preferably used, and a light source 312 shines light through the samples disposed in such dish. The light source preferably provides light with a wavelength of from 200 about 800 nanometers. In one embodiment, the wavelength provided by the light source is from about 300 to about 700 nanometers. In yet another embodiment, the wavelength provided by the light source is from about 340 to about 660 nanometers.
Referring again to FIG. 6, and in the preferred embodiment depicted therein, the transmittance values measured by sensor 314 may be converted into optical density values in accordance with the formula: Dw=-log10Tw, wherein Tw is the measured transmittance of the sample measured at the specified wavelength (w) of the light used, and Dw is the optical density of the sample at the specified wavelength of the light used.
Thus, applicant's process allows one to measure the true optical density of a sample rather than mere absorbance. Once such optical density has been measured, one can then plot optical density versus time (as illustrated in the Figures of U.S. Pat. No. 6,258,553) and obtain a true rather than a distorted indication of cell apoptosis. […]

[1] = system: epithelial carcinoma cells; assay: exposure of cells to radiolabeled lineage specific hormones (FIG. 19); type: cell-based
Excerpt: FIG. 19 is a representation of the results of exposing cells to various lineage specific hormones. […] Reference may be had to U.S. Pat. No. 6,565,827 (radioimmunotherapy of lymphoma using anti-CD20 antibodies), U.S. Pat. No. 6,287,537 (radioimmunotherapy of lymphoma using anti-CD20 antibodies), U.S. Pat. No. 6,015,542 (radioimmunotherapy of lymphoma using anti-CD20 antibodies), and U.S. Pat. No. 5,843,398 (radioimmunotherapy of lymphoma using anti-CD 20 antibodies). The entire disclosure of these United States patents are hereby incorporated by reference into this specification. […] In another embodiment (see graph 1300) epithelial cells, 1310, and ovarian cancer cells, 1320, are exposed to radiolabeled estrogen. Over 90 percent of the ovarian cancer cells are killed upon exposure to the radiolabeled estrogen but less than 30 percent of the epithelial carcinoma cells are killed upon exposure.

Row | Compound | slope of optical density versus time relative to control slope (K562 tumor cells; K562 tumor cells derived from a patient with chronic myelogenous leukemia) | apoptosis peak in the KOR assay (K562 tumor cells; optical density versus time) | epithelial carcinoma cells killed upon exposure [1]
1 | Cc1ccc(NC(=O)c2ccc(CN3CCN(C)CC3)cc2)cc1Nc1nccc(-c2cccnc2)n1 [imatinib mesylate] | dose-dependent decrease in slope | do not produce | –
2 | radiolabeled epithelial growth factor: radiolabeled ligand used to kill cells that possess receptors for the particular ligand (NSDSECPLSHDGYCLHDGVCMYIEALDKYACNCVVGYIGERCQYRDLKWWELR; Epidermal growth factor radiolabel; UniProt P01133 971-1023, looked up) | – | – | more than 50%
